“And” between values parts separate entries of the source, which are not always exact repeats. Identical values can stand only once. One block for each compound: values may come before it.
Experiment: Plasma pharmacokinetic parameters (LC-MS/MS)
Experimental: Pharmacokinetic evaluation was conducted as previously described[8] using a validated liquid chromatography with tandem mass spectrometry (LC-MS/MS) method.[16] […] CSF samples were intraoperatively collected.

[1] = total everolimus plasma, dose 2.5 mg, individual patients
[2] = total everolimus plasma, dose 2.5 mg, median
[3] = total everolimus plasma, dose 5 mg, individual patients
[4] = total everolimus plasma, dose 5 mg, median
[5] = total everolimus plasma, dose 10 mg, individual patients
[6] = total everolimus plasma, dose 10 mg, mean
[7] = total everolimus plasma, dose 10 mg, median
[8] = total everolimus plasma, dose 50 mg, individual patients, listed as everolimus
[9] = total everolimus plasma, dose 60 mg, individual patients
[10] = total everolimus plasma, dose 60 mg, mean
[11] = total everolimus plasma, dose 60 mg, median
[12] = total everolimus plasma, dose 70 mg, individual patients
[13] = plasma, 400 mg, individual patients
[14] = plasma, 600 mg, individual patients

SMILES: CO[C@H]1C[C@@H]2CC[C@@H](C)[C@@](O)(O2)C(=O)C(=O)N2CCCC[C@H]2C(=O)O[C@H]([C@H](C)C[C@@H]2CC[C@@H](OCCO)[C@H](OC)C2)CC(=O)[C@H](C)/C=C(\C)[C@@H](O)[C@@H](OC)C(=O)[C@H](C)C[C@H](C)/C=C/C=C/C=C/1C [Everolimus, everolimus]
AUC(0-t) (human, plasma, oral, 2.5 mg, AUClast, total everolimus plasma, mean): 0.31 µM·h | AUC(0-t) (human, plasma, oral, 2.5 mg, AUClast, total everolimus plasma, median): 0.23 µM·h | Cmax (human, plasma, oral, 2.5 mg, Cmax, total everolimus plasma, mean): 33.7 nM | half-life (human, plasma, oral, 2.5 mg, T1/2, total everolimus plasma, mean): 21.6 h | half-life (human, plasma, oral, 2.5 mg, T1/2, total everolimus plasma, median): 17.2 h | Tmax (human, plasma, oral, 2.5 mg, Tmax, total everolimus plasma, mean): 1.86 h | AUC(0-t) (human, plasma, oral, 5 mg, AUClast, total everolimus plasma, individual patients): 0.55 µM·h | AUC(0-t) (human, plasma, oral, 5 mg, AUClast, total everolimus plasma, mean): 0.43 µM·h | AUC(0-t) (human, plasma, oral, 5 mg, AUClast, total everolimus plasma, median): 0.5 µM·h | Cmax (human, plasma, oral, 5 mg, Cmax, total everolimus plasma, mean): 34.1 nM | half-life (human, plasma, oral, 5 mg, T1/2, total everolimus plasma, mean): 19.9 h | half-life (human, plasma, oral, 5 mg, T1/2, total everolimus plasma, median): 18.8 h | Tmax (human, plasma, oral, 5 mg, Tmax, total everolimus plasma, mean): 2.69 h | Tmax (human, plasma, oral, 5 mg, Tmax, total everolimus plasma, median): 2.03 h | AUC(0-t) (human, plasma, oral, 10 mg, AUClast, total everolimus plasma, mean): 0.9 µM·h | AUC(0-t) (human, plasma, oral, 10 mg, AUClast, total everolimus plasma, median): 0.82 µM·h | Cmax (human, plasma, oral, 10 mg, Cmax, total everolimus plasma, individual patients): 80 nM | half-life (human, plasma, oral, 10 mg, T1/2, total everolimus plasma, individual patients): 22.1 h | half-life (human, plasma, oral, 10 mg, T1/2, total everolimus plasma, mean): 21.8 h | half-life (human, plasma, oral, 10 mg, T1/2, total everolimus plasma, median): 21.8 h | Tmax (human, plasma, oral, 10 mg, Tmax, total everolimus plasma, mean): 3.23 h | Tmax (human, plasma, oral, 10 mg, Tmax, total everolimus plasma, median): 3.92 h | AUC(0-t) (human, plasma, oral, 50 mg, AUClast, total everolimus plasma, individual patients): 1.35 µM·h | AUC(0-t) (human, plasma, oral, 50 mg, AUClast, total everolimus plasma, mean): 1.59 µM·h | AUC(0-t) (human, plasma, oral, 50 mg, AUClast, total everolimus plasma, median): 1.61 µM·h | Cmax (human, plasma, oral, 50 mg, Cmax, total everolimus plasma, individual patients): 110 nM | Cmax (human, plasma, oral, 50 mg, Cmax, total everolimus plasma, mean): 140 nM | Cmax (human, plasma, oral, 50 mg, Cmax, total everolimus plasma, median): 130 nM | half-life (human, plasma, oral, 50 mg, T1/2, total everolimus plasma, mean): 29.3 h | half-life (human, plasma, oral, 50 mg, T1/2, total everolimus plasma, median): 21.3 h | Tmax (human, plasma, oral, 50 mg, Tmax, total everolimus plasma, mean): 1.31 h | Tmax (human, plasma, oral, 50 mg, Tmax, total everolimus plasma, median): 1.12 h | AUC(0-t) (human, plasma, oral, 60 mg, AUClast, total everolimus plasma, individual patients): 1.93 µM·h | AUC(0-t) (human, plasma, oral, 60 mg, AUClast, total everolimus plasma, mean): 1.88 µM·h | AUC(0-t) (human, plasma, oral, 60 mg, AUClast, total everolimus plasma, median): 1.88 µM·h | Cmax (human, plasma, oral, 60 mg, Cmax, total everolimus plasma, individual patients): 190 nM | Cmax (human, plasma, oral, 60 mg, Cmax, total everolimus plasma, mean): 190 nM | Cmax (human, plasma, oral, 60 mg, Cmax, total everolimus plasma, median): 190 nM | half-life (human, plasma, oral, 60 mg, T1/2, total everolimus plasma, mean): 19.7 h | half-life (human, plasma, oral, 60 mg, T1/2, total everolimus plasma, median): 19.7 h | AUC(0-t) (human, plasma, oral, 70 mg, AUClast, total everolimus plasma, individual patients): 1.24 µM·h | AUC(0-t) (human, plasma, oral, 70 mg, AUClast, total everolimus plasma, mean): 1.29 µM·h | AUC(0-t) (human, plasma, oral, 70 mg, AUClast, total everolimus plasma, median): 1.27 µM·h | Cmax (human, plasma, oral, 70 mg, Cmax, total everolimus plasma, individual patients): 120 nM | Cmax (human, plasma, oral, 70 mg, Cmax, total everolimus plasma, mean): 120 nM | Cmax (human, plasma, oral, 70 mg, Cmax, total everolimus plasma, median): 120 nM | half-life (human, plasma, oral, 70 mg, T1/2, total everolimus plasma, individual patients): 18.7 h | half-life (human, plasma, oral, 70 mg, T1/2, total everolimus plasma, mean): 19.4 h | half-life (human, plasma, oral, 70 mg, T1/2, total everolimus plasma, median): 19.4 h | Tmax (human, plasma, oral, 70 mg, Tmax, total everolimus plasma, mean): 4.25 h | Tmax (human, plasma, oral, 70 mg, Tmax, total everolimus plasma, median): 1.93 h | AUClast [1]: 0.41 µM·h and 0.68 µM·h and 0.46 µM·h and 0.32 µM·h and 0.19 µM·h and 0.16 µM·h and 0.14 µM·h | CL/F [1]: 6.33 L/h and 3.85 L/h and 5.73 L/h and 8.25 L/h and 11.50 L/h and 13.68 L/h and 16.29 L/h and 18.14 L/h and 15.94 L/h | Tmax [1]: 0.93 h and 1.00 h and 1.88 h and 2.05 h and 1.05 h and 3.97 h and 1.92 h and 1.95 h and 2.02 h | CL/F (total everolimus plasma, dose 2.5 mg, mean): 11.08 L/h | CL/F [2]: 11.50 L/h | Cmax [2]: 30 nM | Tmax [2]: 1.92 h | AUClast [3]: 0.22 µM·h | CL/F [3]: 9.45 L/h and 23.36 L/h and 10.39 L/h | Cmax [3]: 45.2 nM and 21.1 nM | T1/2 [3]: 28.35 h and 18.84 h and 12.56 h | Tmax [3]: 1.95 h and 4.10 h | CL/F (total everolimus plasma, dose 5 mg, mean): 14.40 L/h | CL/F [4]: 10.39 L/h | Cmax [4]: 36.2 nM | AUClast [5]: 0.49 µM·h and 0.63 µM·h and 1.02 µM·h and 1.48 µM·h | CL/F [5]: 21.35 L/h and 16.51 L/h and 10.28 L/h and 7.07 L/h | Cmax [5]: 120 nM | T1/2 [5]: 21.52 h | Tmax [5]: 4.03 h and 1.05 h and 3.83 h and 4.00 h | CL/F [6]: 13.80 L/h | Cmax [6]: 90 nM | CL/F [7]: 13.40 L/h | Cmax [7]: 84.6 nM | Cmax (total everolimus plasma, dose 50 mg, individual patients): 130 nM | AUClast [8]: 1.87 µM·h and 1.42 µM·h and 1.72 µM·h | CL/F [8]: 21.38 L/h and 14.80 L/h and 15.39 L/h and 21.73 L/h and 8.55 L/h | Cmax [8]: 130 nM and 160 nM and 170 nM | Tmax [8]: 1.87 h and 1.78 h and 0.83 h and 0.95 h | CL/F (total everolimus plasma, dose 50 mg, mean): 16.37 L/h | CL/F (total everolimus plasma, dose 50 mg, median): 15.39 L/h | AUClast [9]: 1.83 µM·h | CL/F [9]: 23.69 L/h and 16.85 L/h | T1/2 [9]: 12.25 h and 27.10 h | Tmax [9]: 1.00 h | CL/F [10]: 20.27 L/h | Tmax [10]: 1.00 h | CL/F [11]: 20.27 L/h | Tmax [11]: 1.00 h | AUClast [12]: 1.36 µM·h | CL/F [12]: 35.41 L/h and 33.84 L/h | Cmax [12]: 90 nM | T1/2 [12]: 20.18 h | Tmax [12]: 9.75 h and 1.07 h | CL/F (total everolimus plasma, dose 70 mg, mean): 34.62 L/h | CL/F (total everolimus plasma, dose 70 mg, median): 34.62 L/h

AUC(0-t) (human, plasma, oral, 400 mg, Total Ribociclib AUClast, Mean): 18.5 µM·h | AUC(0-t) (human, plasma, oral, 400 mg, Total Ribociclib AUClast, Median): 13.8 µM·h | Cmax (human, plasma, oral, 400 mg, Total Ribociclib Cmax, Median): 1320 nM | half-life (human, plasma, oral, 400 mg, Total Ribociclib T1/2, plasma, Mean): 13.1 h | half-life (human, plasma, oral, 400 mg, Total Ribociclib T1/2, plasma, Median): 11.4 h | half-life (human, plasma, oral, 400 mg, Unbound Ribociclib T1/2, plasma, Mean): 11.3 h | half-life (human, plasma, oral, 400 mg, Unbound Ribociclib T1/2, plasma, Median): 11.2 h | half-life (human, plasma, oral, 400 mg, Unbound Ribociclib T1/2, plasma, individual patients): 7.04 h | Tmax (human, plasma, oral, 400 mg, Unbound Ribociclib Tmax, Mean): 2.65 h | AUC(0-t) (human, plasma, oral, 600 mg, Total Ribociclib AUClast, Mean): 28.4 µM·h | Cmax (human, plasma, oral, 600 mg, Total Ribociclib Cmax, Mean): 2190 nM | Cmax (human, plasma, oral, 600 mg, Total Ribociclib Cmax, Median): 1810 nM | half-life (human, plasma, oral, 600 mg, Total Ribociclib T1/2, plasma, Mean): 17.3 h | Tmax (human, plasma, oral, 600 mg, Total Ribociclib Tmax, Mean): 3.23 h | half-life (human, plasma, oral, 600 mg, Unbound Ribociclib T1/2, plasma, Median): 11.5 h | Tmax (human, plasma, oral, 600 mg, Unbound Ribociclib Tmax, Mean): 4.76 h | Total Ribociclib CL/F (plasma, 400 mg, Mean): 62.22 L/h | Total Ribociclib Tmax (plasma, 400 mg, Mean): 3.00 h | Unbound Ribociclib Cmax (plasma, 400 mg, Mean): 290 nM | Total Ribociclib CL/F (plasma, 400 mg, Median): 66.79 L/h | Unbound Ribociclib Cmax (plasma, 400 mg, Median): 230 nM | Unbound Ribociclib T1/2 [13]: 15.62 h and 13.50 h and 9.01 h | Total Ribociclib CL/F (plasma, 600 mg, Mean): 59.77 L/h | Unbound Ribociclib Cmax (plasma, 600 mg, Mean): 320 nM | Unbound Ribociclib T1/2 (plasma, 600 mg, Mean): 15.49 h | Total Ribociclib CL/F (plasma, 600 mg, Median): 55.14 L/h | Unbound Ribociclib Cmax (plasma, 600 mg, Median): 280 nM | Total Ribociclib Tmax [14]: 3.98 h and 1.67 h and 4.00 h
SMILES: CN(C)C(=O)c1cc2cnc(Nc3ccc(N4CCNCC4)cn3)nc2n1C1CCCC1 [Ribociclib, ribociclib]
Total Ribociclib CL/F [13]: 65.30 L/h and 28.56 L/h and 68.28 L/h and 29.74 L/h and 83.61 L/h and 97.80 L/h | Unbound Ribociclib Cmax [13]: 310 nM and 690 nM and 150 nM and 260 nM and 120 nM and 190 nM | Total Ribociclib CL/F [14]: 22.31 L/h and 79.68 L/h and 49.86 L/h and 52.45 L/h and 57.05 L/h and 59.00 L/h and 104.11 L/h and 29.22 L/h and 48.20 L/h and 71.59 L/h and 35.82 L/h and 156.41 L/h and 47.05 L/h and 55.14 L/h and 66.74 L/h and 66.55 L/h and 50.38 L/h and 59.19 L/h and 24.80 L/h | Unbound Ribociclib Cmax [14]: 580 nM and 280 nM and 370 nM and 290 nM and 260 nM and 340 nM and 310 nM and 730 nM and 300 nM and 220 nM and 380 nM and 90 nM and 210 nM and 180 nM and 240 nM and 230 nM and 470 nM | Unbound Ribociclib T1/2 [14]: 14.45 h and 9.00 h and 8.65 h and 15.15 h and 15.94 h and 42.32 h

Source: paper PMC13070491, “Single-nucleus transcriptomics, pharmacokinetics, and pharmacodynamics of CDK4/6 and mTOR inhibition in a Phase 0/1 trial of recurrent high-grade glioma” (Neuro-Oncology, 2025)
